{"source": "patent US20260263554A1", "about": "“COMPOSITION COMPRISING CPNE7 PROTEIN OR CPNE7 PROTEIN-DERIVED PEPTIDE FOR REMOVING REACTIVE OXYGEN SPECIES IN CELLS” (HYSENSBIO CO., LTD, priority 2022, published 2026)", "key": {"CCD986SK cells [1]": {"test_system": "CCD986SK cells", "experiment": "Amount of living cells by WST-8 in dermal fibroblasts", "format": "cell-based", "conditions": "1 mM H2O2, 1, 10, 100 and 500 μg/mL Selcopintide, 24 hours, compared to H2O2-only-treated group", "protocol": "(§1) Cultured CCD986SK cells were seeded into 96-well plates at a density of 3×10^3 cells per well, cultured for 24 hours, and then treated with 1 mM hydrogen peroxide (H2O2) and treated with Selcopintide at concentrations of 1 μg/mL, 10 μg/mL, 100 μg/mL, and 500 μg/mL for 24 hours. Untreated CCD986SK cells were used as the control.\nThe WST-8 solution was added to each well and allowed to react for one hour, and then absorbance was measured at 450 nm using a microplate reader and compared."}, "[2]": {"test_system": "Human dental pulp cells (hDPCs)", "experiment": "Optical microscope observation of hDPCs after H2O2 and test substance", "format": "cell-based", "conditions": "24 hours", "protocol": "Human dental pulp cells (hDPCs) were cultured in an α-MEM medium containing 10% FBS under 37° C. and 5% CO2 conditions.\nhDPCs were seeded into 35 mm culture dishes at a density of 1×10^5 cells, cultured for 24 hours, treated with H2O2 at a concentration of 5 uM, 100 uM, 1 mM, or 2 mM, respectively, and then treated with 100 ng/ml of a recombinant CPNE7 protein and cultured for 24 hours. After the culture was completed, the cultured cells were washed with PBS, and observed using an optical microscope. At this time, the hDPCs cultured without treating the recombinant CPNE7 protein (rCPNE7) were used as the control.\nas §1, with “Cultured hDPC” for “Cultured CCD986SK”, “into 6-well” for “into 96-well”, “of 1×10^5” for “of 3×10^3”, “Untreated hDPCs” for “Untreated CCD986SK cells”"}, "hDPCs [3]": {"test_system": "hDPCs", "experiment": "Immunofluorescence staining with γ-H2A.X (DNA damage marker)", "format": "cell-based, human", "conditions": "1 mM H2O2, 10 μg/mL Selcopintide, 24 hours, vs 1 mM H2O2 group", "protocol": "Cultured hDPCs were seeded into 35 mm culture dishes for a confocal microscope at a density of 1×10^5 cells, cultured for 24 hours, and then treated with 1 mM H2O2 and treated with 100 ng/mL of rCPNE7. After 24 hours, the cells were fixed with 4% paraformaldehyde.\nImmunofluorescence staining using a γ-H2A.X antibody was performed on the fixed cells to compare intensity.\nCultured hDPCs were seeded into 35 mm culture dishes for a confocal microscope at a density of 1×10^5 cells, cultured for 24 hours, and then treated with 1 mM H2O2 and treated with 10 μg/mL of Selcopintide. After 24 hours, the cells were fixed with 4% paraformaldehyde."}, "H9C2 cells [4]": {"test_system": "H9C2 cells", "experiment": "Amount of living cells by WST-8 in cardiomyocytes", "format": "cell-based", "conditions": "H9C2, 1 mM H2O2, 1, 10, 100 and 500 μg/mL Selcopintide, 24 hours; compared to H2O2-only-treated group", "protocol": "as §1, with “H9C2” for “CCD986SK”\n(§2) The WST-8 solution was added to each well and allowed to react for 1 hour, and then absorbance was measured at 450 nm using a microplate reader and compared."}, "[5]": {"test_system": "cardiomyocytes (H9C2 cell line)", "experiment": "Optical microscope observation of cardiomyocytes after H2O2 and Selcopintide", "format": "cell-based", "conditions": "H9C2, 1 mM H2O2, Selcopintide 1, 10, 100 and 500 μg/mL, 24 hours; compared to H2O2-only-treated group", "protocol": "as §1, with “H9C2” for “CCD986SK”, “6-well” for “96-well”, “1×10^5” for “3×10^3”"}, "CCD986SK cells [6]": {"test_system": "CCD986SK cells", "experiment": "B-gal staining, cell aging in dermal fibroblasts", "format": "cell-based", "conditions": "1 mM H2O2, Selcopintide 1, 10, 100 and 500 μg/mL, 24 hours, compared to H2O2-only-treated group", "protocol": "Cultured CCD986SK cells were seeded into 6-well plates at a density of 1×10^5 cells, cultured for 24 hours, and then treated with 1 mM H2O2 and treated with 1 μg/mL, 10 μg/mL, 100 μg/mL, and 500 μg/mL of Selcopintide. After 24 hours, the cells were fixed with 4% paraformaldehyde.\nB-gal staining was performed on the fixed cells for 24 hours to compare the degrees of cell aging. 24 hours after treatment with 1 mM H2O2, a large number of B-gal positive CCD986SK cells were identified."}, "H9C2 cells [7]": {"test_system": "H9C2 cells", "experiment": "B-gal staining, cell aging in cardiomyocytes", "format": "cell-based", "conditions": "H9C2, 1 mM H2O2, Selcopintide 1, 10, 100 and 500 μg/mL, 24 hours; compared to H2O2-only-treated group", "protocol": "Cultured H9C2 was seeded into 6-well plates at a density of 1×10^5 cells, cultured for 24 hours, and then treated with 1 mM H2O2 and treated with 1 μg/mL, 10 μg/mL, 100 μg/mL, and 500 μg/mL of Selcopintide. After 24 hours, the cells were fixed with 4% paraformaldehyde.\nNext, B-gal staining was performed on the fixed cells for 24 hours to compare the degree of cell aging. 24 hours after treatment with 1 mM H2O2, a large number of B-gal positive H9C2 cells were identified."}, "hDPCs [8]": {"test_system": "hDPCs", "experiment": "Reactive oxygen species level with DCFDA, confocal microscope", "format": "cell-based, human", "conditions": "1 mM H2O2, 10 μg/mL Selcopintide, imaged for approximately one hour", "protocol": "Cultured hDPCs were seeded into 35 mm culture dishes for a confocal microscope at a density of 1×10^5 cells, cultured for 24 hours, and then treated with 1 mM H2O2 and treated with 100 ng/mL of rCPNE7. Then, images were taken for approximately one hour using a confocal microscope.\nCultured hDPCs were seeded into 35 mm culture dishes for a confocal microscope at a density of 1×10^5 cells, cultured for 24 hours, and then treated with 1 mM H2O2 and treated with 10 μg/mL of Selcopintide. Thereafter, images were taken for approximately one hour using a confocal microscope."}, "[9]": {"test_system": "endogenous antioxidant enzymes in hDPC cells", "experiment": "mRNA levels of endogenous antioxidant enzymes by RT-PCR", "format": "cell-based, human", "conditions": "hDPCs, 1 mM H2O2, CPNE7 recombinant protein 100 ng/mL or Selcopintide 10 ug/mL", "protocol": "Cultured hDPCs were seeded into 60 mm culture dishes at a density of 4×10^5 cells, cultured for 24 hours, and then treated with 1 mM H2O2 and treated with the CPNE7 recombinant protein (100 ng/mL) and Selcopintide (10 ug/mL). After 30 minutes and one hour, the mRNA levels of Sod1, 2, and 3, catalase, Gpx7, Hmox1, and Txmd1 were checked."}, "hDPC cells": {"test_system": "hDPC cells", "experiment": "Amount of living cells by WST-8", "format": "cell-based, human", "conditions": "hDPCs, 1 mM H2O2, 1 μg/mL and 10 μg/mL Selcopintide, 24 hours; compared to H2O2-only-treated group", "protocol": "as §1, with “Cultured hDPC” for “Cultured CCD986SK”, “Untreated hDPCs” for “Untreated CCD986SK cells”\nas §2"}, "[10]": {"test_system": "dermal fibroblast (CCD986SK) cells", "experiment": "Optical microscope observation of dermal fibroblasts after H2O2 and Selcopintide", "format": "cell-based", "conditions": "24 hours", "protocol": "as §1, with “6-well” for “96-well”, “1×10^5” for “3×10^3”"}, "[11]": {"conditions": "1 mM H2O2, Selcopintide 1, 10, 100 and 500 μg/mL, compared to H2O2-only-treated group"}}, "data": [{"sequence": "KYKQKRRSYK (Novel peptide) [Selcopintide]", "values": [{"measurement": "cell viability (WST-8, absorbance 450 nm)", "setting": "CCD986SK cells [1]", "value": "significantly higher"}, {"measurement": "cell viability (optical microscope)", "setting": "[2]; 1 mM H2O2, 1 μg/mL and 10 μg/mL treatment groups", "value": "high"}, {"measurement": "cell viability (optical microscope)", "setting": "[2]; [11]", "value": "higher"}, {"measurement": "accumulation of DNA damage (γ-H2A.X intensity)", "setting": "hDPCs [3]", "value": "significantly reduced"}, {"measurement": "cell viability (WST-8, absorbance 450 nm)", "setting": "H9C2 cells [4]", "value": "significantly higher"}, {"measurement": "cell viability (optical microscope)", "setting": "[5]", "value": "higher"}, {"measurement": "number of B-gal positive CCD986SK cells", "setting": "CCD986SK cells [6]", "value": "significantly reduced"}, {"measurement": "number of B-gal positive H9C2 cells", "setting": "H9C2 cells [7]", "value": "significantly reduced"}, {"measurement": "amount of reactive oxygen species (DCFDA)", "setting": "hDPCs [8]", "value": "decreased and became significant at approximately one hour"}, {"measurement": "mRNA of endogenous antioxidant enzymes Sod1, 2, and catalase", "setting": "[9]; after 30 minutes, compared to H2O2-only-treated group", "value": "significantly increased"}, {"measurement": "mRNA of Sod1 and Gpx7, and Hmox1 and Txrnd1", "setting": "[9]; after one hour", "value": "significantly increased"}, {"measurement": "cell viability (WST-8, absorbance 450 nm)", "setting": "hDPC cells", "value": "significantly higher"}, {"measurement": "significance of higher cell viability (optical microscope)", "setting": "[10]; 1 mM H2O2, 1 μg/mL and 10 μg/mL of Selcopintide", "value": "highest"}, {"measurement": "cell viability (optical microscope)", "setting": "[10]; [11]", "value": "higher"}]}]}
